Tested on: tumor lesions and normal tissue of cancer patients
Experiment: Clinical PET/CT imaging in cancer patients (SUV)
Type: in vivo, human
Method: Diagnostic imaging of more than 100 patients was performed under the conditions of the updated declaration of Helsinki, § 37 (Unproven interventions in clinical practice) and in accordance to the German Pharmaceuticals Law § 13 (2b) for medical reasons using either ^68Ga-FAPI-02 or -04, which was applied intravenously (20 nmol, 122-336 MBq), 10 min, 1 and 3 hours post tracer administration. Variation of injected radiotracer activity is due to the short half-life of ^68Ga and the variable elution efficiencies obtained during the lifetime of the ^68Ge/^68Ga generator. […] The PET/CT scans were performed with a Biograph mCT Flow™ PET/CT-Scanner (Siemens Medical Solution) using the following parameters: slice thickness of 5 mm, increment of 3-4 mm, soft-tissue reconstruction kernel, care dose. Immediately after CT scanning, a whole-body PET was acquired in 3D (matrix 200×200) in FlowMotion™ with 0.7 cm/min. The emission data were corrected for random, scatter and decay. Reconstruction was conducted with an ordered subset expectation maximisation (OSEM) algorithm with 2 iterations/21 subsets and Gauss-filtered to a transaxial resolution of 5 mm at full-width half-maximum (FWHM). Attenuation correction was performed using the low-dose non-enhanced CT data. The quantitative assessment of standardized uptake values (SUV) was done using a region of interest technique.
For the normal tissue of 16 organs, a 2 cm Spheric-VOI was placed in the parenchyma, for tumor lesions a threshold segmented VOI was used to quantify SUVmean/max^3.

[1] = 1 h p.i., intra-individual comparison of 6 patients

background uptake in brain [1]: 0.32 | background uptake in liver [1]: 1.69 | background uptake in oral/pharyngeal mucosa [1]: 2.57 | decrease of tumor uptake (washout) (from 1 h to 3 h p.i., patients): 75%
Structure (SMILES): N#C[C@@H]1CCCN1C(=O)CNC(=O)c1ccnc2ccc(OCCCN3CCN(C(=O)CN4CCN(CC(=O)O)CCN(CC(=O)O)CCN(CC(=O)O)CC4)CC3)cc12 [FAPI-02]
maximum SUV values in primary tumor, lymph node and bone metastases (68Ga labeled, 1 h after i.v. administration, patients): ≤ 48.0 | tumor uptake, average SUV max [1]: 7.37

Reference: patent US20250127937A1, “FAP INHIBITOR” (UNIVERSITÄT HEIDELBERG, priority 2018, published 2025)
